Assay results reported in article PMC11284088, “Synthesis and biochemical characterization of naphthoquinone derivatives targeting bacterial histidine kinases” (The Journal of Antibiotics, 2024).
Entries after “also recorded” stand apart in the source; their conditions may differ.

Assays:
[1] = target: T1, WalK (207-611, B. subtilis) (Bacillus subtilis, UniProt Q45614); assay: Affinity selection/mass spectrometry, competition with waldiomycin; assay type: binding; set-up: key to AS/MS: AS/MS + competitive inhibition of the binding of waldiomycin to WalK; − increased binding of waldiomycin to WalK; settings: for increase of MS signal of the collected waldiomycin compared to only waldiomycin: compound 30 or 100 µM; for AS/MS: summary class, effect on binding of waldiomycin to WalK
T1 construct: His6 (N); made in house; host or cells: E. coli BL21(DE3)
T1 sequence (Q45614 207-611): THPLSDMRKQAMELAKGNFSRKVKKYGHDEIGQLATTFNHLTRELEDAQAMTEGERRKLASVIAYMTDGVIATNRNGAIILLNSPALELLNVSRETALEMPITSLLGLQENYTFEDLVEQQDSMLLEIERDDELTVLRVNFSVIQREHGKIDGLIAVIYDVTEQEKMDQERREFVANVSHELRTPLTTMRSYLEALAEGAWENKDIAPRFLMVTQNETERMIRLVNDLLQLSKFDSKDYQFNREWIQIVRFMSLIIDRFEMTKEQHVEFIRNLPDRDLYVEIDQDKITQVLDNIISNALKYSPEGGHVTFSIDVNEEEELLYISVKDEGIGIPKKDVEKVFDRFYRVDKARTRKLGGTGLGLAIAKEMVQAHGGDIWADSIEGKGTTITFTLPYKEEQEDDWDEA
Procedure: The affinity selection/mass spectrometry (AS/MS) is a method which can detect the binding of small compounds to proteins. This experiment was carried out following a previously established protocol (Fig. 5), with the exception of using Millipore 96-well filter plates (MSBVN1210) instead of MAHAN4510. In the experiment, 1 µM of WalK (207-611, B. subtilis, refer to Table S2) was combined and incubated with 5 µM of waldiomycin and competitor compounds in a reaction buffer. The buffer composition was as follows: 25 mM Tris-HCl (pH 8.0), 50 mM KCl, 50 mM NH4Cl, 5 mM MgCl2, 1 mM DTT, and 0.1% CHAPS. Following the incubation, the mixture was subjected to size-exclusion chromatography via centrifugation to eliminate free compounds. The protein that was eluted was then denatured by adding an equal volume of methanol/0.1% formic acid. The compounds that were subsequently released from the protein were detected using an LC/MS system. The concentrations of waldiomycin were calculated from the value of peak areas using calibration curve that covered the range of 1 nM to 1 µM (R^2 = 0.9991). The concentration of waldiomycin in the eluate of WalK and waldiomycin without competitor was 10.1 nM, and percentages to this value were calculated for other samples.

EnvZ = target: T2, EnvZ (Escherichia coli, UniProt P0AEJ4); assay: Inhibition of EnvZ autophosphorylation; assay type: biochemical, Escherichia coli K12; settings: EnvZ; 1 µM HK, 40 µM ATP, 30 min at 25 °C; read-out: IC50
T2 construct: pETEcEnvZ(223-450); His6 (C); made in house; host or cells: E. coli BL21(DE3)
T2 sequence (P0AEJ4 223-450): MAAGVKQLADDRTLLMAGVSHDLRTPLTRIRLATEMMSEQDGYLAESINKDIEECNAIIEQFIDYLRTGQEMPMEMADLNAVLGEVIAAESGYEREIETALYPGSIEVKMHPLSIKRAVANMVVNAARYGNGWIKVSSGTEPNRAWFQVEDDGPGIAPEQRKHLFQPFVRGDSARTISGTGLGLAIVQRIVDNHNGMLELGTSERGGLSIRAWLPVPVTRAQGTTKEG
Procedure: Autophosphorylation of WalK was conducted at 0.5 or 1 µM in a reaction mixture comprising 50 mM Tris-HCl (pH 8.5), 100 mM KCl, 5 mM MgCl2, 100 mM NH4Cl, 5% DMSO, and 40 µM ATP. The total reaction volume was 40 µl, and the incubation lasted for 30 min at 25 °C. To terminate the reaction, 40 µl of 2 × SDS-PAGE sample buffer was added, followed by a 10-min incubation at 37 °C. Subsequently, SDS-PAGE (10% acrylamide) was performed, and the samples were subjected to Western blotting using a PVDF membrane (Bio-Rad 1620177). The primary antibody used was anti-N3-phosphohistidine antibody (clone SC56-2) (EDM Millipore Corp), and the secondary antibody was goat anti-rabbit IgG-HRP (Abcam). A 2% bovine serum albumin (Sigma-Aldrich) solution served as the blocking reagent. Signals originating from phosphorylated HKs were detected using the HRP substrate (Immobilon Western Chemiluminescent HRP substrate, Millipore) and the Multi Imager II Multi Box (Bio Tools). Signal intensities were quantified with Image Analysis Software CS Analyzer 4 (ATTO). IC50 values (50% inhibitory concentrations) were determined using Prism 7 software (GraphPad).
In the assessment of naphthoquinone derivatives, the initial screening for inhibitory activity against WalK autophosphorylation was conducted at 50 or 100 µg ml^−1. Compounds displaying inhibitory activity were further examined to ascertain their IC50 values against WalK. For the chosen compounds, inhibition against EvgS, EnvZ, PhoQ, and CpxA HKs was also assessed. These reactions involved the use of 1 µM HK, 40 µM ATP, and a 30 min incubation at 25 °C.

O=C1C(Cl)=C(Nc2ccc(Cl)c(O)c2)C(=O)c2c(O)ccc(O)c21 [2h, 2-chloro-3-((4-chloro-3-hydroxyphenyl)amino)-5,8-dihydroxynaphthalene-1,4-dione]
increase of MS signal of the collected waldiomycin compared to only waldiomycin ([1]; waldiomycin 5 µM, WalK 1 µM): about twofold | binding to WalK competitive with that of waldiomycin ([1]; in words): not competitive; also recorded: enhanced the binding of waldiomycin to WalK | AS/MS [1]: − | IC50 (EnvZ): 47.2 µM

CC(C)(C)OC(=O)Nc1cccc(NC2=C(Cl)C(=O)c3c(O)ccc(O)c3C2=O)c1 [2l, tert-butyl (3-((3-chloro-5,8-dihydroxy-1,4-dioxo-1,4-dihydronaphthalen-2-yl)amino)phenyl)carbamate]
increase of MS signal of the collected waldiomycin compared to only waldiomycin ([1]; waldiomycin 5 µM, WalK 1 µM): about twofold | binding to WalK competitive with that of waldiomycin ([1]; in words): not competitive; also recorded: enhanced the binding of waldiomycin to WalK | AS/MS [1]: − | IC50 (EnvZ): 26.8 µM

Cc1noc2c1C(=O)c1c(O)ccc(O)c1C2=O [3b, 5,8-dihydroxy-3-methylnaphtho[2,3-d]isoxazole-4,9-dione]
effect on the signal of waldiomycin ([1]; compound 30 and 100 µM, in words): reduced the signal of waldiomycin in a dose-dependent manner | signal of waldiomycin compared to only waldiomycin with WalK ([1]; compound at 100 µM, waldiomycin 5 µM, WalK 1 µM): about 10% | binding to WalK competitive with that of waldiomycin ([1]; in words): competitive; also recorded: competitively interacted with waldiomycin | AS/MS [1]: + | IC50 (EnvZ): 77.3 µM
